Entries after “also recorded” stand apart in the source; their conditions may differ. Read-outs that look alike come from different tables or passages of the source.
Key:
lethal virus infection = assay: protection against lethal virus infection in mice; type: in vivo; conditions: not published
From the text: Following advanced experiment on carbohydrate chemistry at the Institute of Wood Chemistry at the University of Uppsala, the inventor was able to provide a water soluble, stimulatory aminated ß(1,3) glucan by treatment of natural, insoluble ß(1,3) with chloroacetaldehyde dimethyl acetal followed by reductive amination (3). The aminated ß(1,3) glucan derivative activated macrophages and thereby protected against otherwise lethal bacterial peritonitis in mice (4), as well as lethal virus infection in mice (not published).

Meth A sarcoma = Meth A sarcoma implanted in the skin of mice, glucan treatment; type: in vivo, hybrid CB6 F1 (Balb/c×C 57131/6) mice
Experimental: Meth A sarcoma was inoculated in the skin of hybrid CB6 F1 (Balb/c×C 57131/6) and grew progressive in immunized animals. […] When 5 mg of pure water-soluble aminated ß(1,3) glucan was injected intravenously or intraperitoneally on day 7, there was an almost immediate visible effect.

sarcoma SA-1 = sarcoma SA-1 in syngeneic mice, glucan treatment; type: in vivo, A strain mice
From the text: To decide whether the ß(1,3) glucan regression was peculiar to the Meth A tumor, we also performed experiments with sarcoma SA-1, syngeneic in A strain mice.

macrophages = conditions: more than forty polysaccharides tested; cited from earlier work
[1] = test system: lethal bacterial peritonitis; conditions: mice, cited from earlier work

Substance: aminated ß(1,3) glucan
- protection against lethal virus infection (lethal virus infection): protected
- tumor appearance 1 hour after injection (Meth A sarcoma; 5 mg intravenously on day 7, saline tumors reddish and bulging): collapsed and whitish-grey
- histological examination of tumor site (Meth A sarcoma; glucan-treated animals): acute inflammation around the tumor
- effect on tumor in non-immunized animals or treated on day 1, 3 (Meth A sarcoma; non-immunized animals, or treatment on day 1, 3): little or no effect
- condition of the animals after 200 days (Meth A sarcoma; one injection on day 7): unaffected and vital
- tumor at day 18-21 after inoculation (Meth A sarcoma; one injection on day 7 (5 mg i.v. or i.p.)): No visible tumor; also recorded: completely replaced by scar tissue
- effect on tumor in TxB animals (Meth A sarcoma; thymectomized, x-ray irradiated and bonemarrow transplanted, day 8-14): no effect
- cases in which tumors reappeared and resumed growth (sarcoma SA-1; after 18-21 days): about one third
- tumor regression compared with Meth A results (sarcoma SA-1; sarcoma SA-1, A strain mice): essentially identical
- ability to stimulate macrophages in vitro (macrophages): stimulatory
- protection against otherwise lethal bacterial peritonitis [1]: protected
- protection against otherwise lethal bacterial peritonitis ([1]; listed as ß(1,3) glucan): sufficient to prevent a lethal outcome
